In ChEMBL document CHEMBL3991601, “The target landscape of clinical kinase drugs” (Science, 2017):
Calls of active or inactive are those of the source.

Assays:
[1] = biological target: Casein kinase II subunit alpha' (Homo sapiens, UniProt P19784)
Glycine--tRNA ligase = biological target: T1, Glycine--tRNA ligase (Homo sapiens, UniProt P41250)
T1 sequence (P41250 whole entry): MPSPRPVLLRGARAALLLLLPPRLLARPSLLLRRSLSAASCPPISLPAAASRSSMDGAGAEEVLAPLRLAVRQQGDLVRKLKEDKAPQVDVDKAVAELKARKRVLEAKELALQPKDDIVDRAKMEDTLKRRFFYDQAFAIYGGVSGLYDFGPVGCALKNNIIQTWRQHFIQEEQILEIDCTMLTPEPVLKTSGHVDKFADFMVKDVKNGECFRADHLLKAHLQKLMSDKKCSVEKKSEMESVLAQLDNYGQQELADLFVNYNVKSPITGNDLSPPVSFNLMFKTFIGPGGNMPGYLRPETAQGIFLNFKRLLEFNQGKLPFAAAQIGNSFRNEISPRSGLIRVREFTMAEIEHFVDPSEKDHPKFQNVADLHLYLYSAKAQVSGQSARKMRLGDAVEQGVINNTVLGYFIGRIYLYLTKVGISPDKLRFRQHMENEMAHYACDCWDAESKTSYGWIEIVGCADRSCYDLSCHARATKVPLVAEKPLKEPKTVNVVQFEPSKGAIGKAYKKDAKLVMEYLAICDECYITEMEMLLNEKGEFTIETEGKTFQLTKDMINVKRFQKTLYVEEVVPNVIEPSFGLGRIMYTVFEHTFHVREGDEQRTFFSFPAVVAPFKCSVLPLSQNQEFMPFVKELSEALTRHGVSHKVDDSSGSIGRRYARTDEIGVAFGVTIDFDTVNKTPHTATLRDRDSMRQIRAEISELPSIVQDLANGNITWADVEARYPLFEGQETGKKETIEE

[2] = biological target: T2, Succinate--CoA ligase [ADP-forming] subunit beta, mitochondrial (Homo sapiens, UniProt Q9P2R7)
T2 sequence (Q9P2R7 whole entry): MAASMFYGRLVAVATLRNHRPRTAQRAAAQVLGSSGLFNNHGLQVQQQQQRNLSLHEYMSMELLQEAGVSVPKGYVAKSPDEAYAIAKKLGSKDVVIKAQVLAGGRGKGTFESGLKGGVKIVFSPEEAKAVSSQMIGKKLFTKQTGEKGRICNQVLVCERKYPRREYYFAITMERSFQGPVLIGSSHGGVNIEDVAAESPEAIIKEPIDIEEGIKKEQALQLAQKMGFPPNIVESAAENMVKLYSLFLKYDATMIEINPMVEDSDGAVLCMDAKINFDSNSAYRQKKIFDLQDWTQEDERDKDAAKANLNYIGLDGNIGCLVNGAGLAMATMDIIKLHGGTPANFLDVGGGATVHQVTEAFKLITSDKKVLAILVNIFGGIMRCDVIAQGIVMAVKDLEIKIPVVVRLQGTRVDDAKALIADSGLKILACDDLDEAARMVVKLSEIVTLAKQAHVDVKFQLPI

[3] = biological target: T3, Tyrosine-protein kinase Tec (Homo sapiens, UniProt P42680)
T3 sequence (P42680 whole entry): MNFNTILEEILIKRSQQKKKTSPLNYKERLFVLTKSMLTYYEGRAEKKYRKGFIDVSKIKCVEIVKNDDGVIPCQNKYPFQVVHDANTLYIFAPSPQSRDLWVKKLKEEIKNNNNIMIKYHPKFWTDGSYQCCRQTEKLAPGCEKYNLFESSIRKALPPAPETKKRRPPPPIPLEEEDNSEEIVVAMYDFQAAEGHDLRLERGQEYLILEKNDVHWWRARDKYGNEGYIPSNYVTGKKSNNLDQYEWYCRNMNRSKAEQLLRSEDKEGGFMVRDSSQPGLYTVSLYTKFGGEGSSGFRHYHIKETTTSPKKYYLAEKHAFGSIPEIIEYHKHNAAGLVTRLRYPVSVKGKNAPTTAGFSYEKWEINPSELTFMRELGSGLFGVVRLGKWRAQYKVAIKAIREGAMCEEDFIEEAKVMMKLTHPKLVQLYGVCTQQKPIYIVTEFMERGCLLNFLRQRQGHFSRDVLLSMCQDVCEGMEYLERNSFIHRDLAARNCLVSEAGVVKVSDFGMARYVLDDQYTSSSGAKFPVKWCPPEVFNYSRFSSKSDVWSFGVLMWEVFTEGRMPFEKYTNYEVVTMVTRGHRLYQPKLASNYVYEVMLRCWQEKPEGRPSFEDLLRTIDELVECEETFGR

Wee1-like protein kinase = Wee1-like protein kinase (Homo sapiens, UniProt P30291)
Sequence of Wee1-like protein kinase (P30291 whole entry): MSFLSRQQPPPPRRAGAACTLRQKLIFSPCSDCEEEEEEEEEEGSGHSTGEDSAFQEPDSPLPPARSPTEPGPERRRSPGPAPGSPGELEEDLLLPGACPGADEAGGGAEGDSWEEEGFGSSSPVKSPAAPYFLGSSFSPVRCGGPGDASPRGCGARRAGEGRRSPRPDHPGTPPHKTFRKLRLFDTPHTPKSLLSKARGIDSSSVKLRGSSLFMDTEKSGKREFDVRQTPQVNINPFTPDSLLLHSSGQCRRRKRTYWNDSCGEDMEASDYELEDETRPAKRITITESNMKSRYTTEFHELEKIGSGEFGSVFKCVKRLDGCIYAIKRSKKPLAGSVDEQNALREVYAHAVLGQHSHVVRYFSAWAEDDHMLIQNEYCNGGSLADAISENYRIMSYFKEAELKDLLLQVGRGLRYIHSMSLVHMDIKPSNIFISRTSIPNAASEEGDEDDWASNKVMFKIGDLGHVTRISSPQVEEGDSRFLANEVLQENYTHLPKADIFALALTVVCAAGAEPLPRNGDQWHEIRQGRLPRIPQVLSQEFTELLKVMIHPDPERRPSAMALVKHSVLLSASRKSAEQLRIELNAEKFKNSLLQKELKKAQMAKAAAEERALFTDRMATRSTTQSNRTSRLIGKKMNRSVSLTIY

[4] = biological target: Cyclin-dependent kinase 5 (Homo sapiens, UniProt Q00535)
Sequence of Cyclin-dependent kinase 5 (Q00535 whole entry): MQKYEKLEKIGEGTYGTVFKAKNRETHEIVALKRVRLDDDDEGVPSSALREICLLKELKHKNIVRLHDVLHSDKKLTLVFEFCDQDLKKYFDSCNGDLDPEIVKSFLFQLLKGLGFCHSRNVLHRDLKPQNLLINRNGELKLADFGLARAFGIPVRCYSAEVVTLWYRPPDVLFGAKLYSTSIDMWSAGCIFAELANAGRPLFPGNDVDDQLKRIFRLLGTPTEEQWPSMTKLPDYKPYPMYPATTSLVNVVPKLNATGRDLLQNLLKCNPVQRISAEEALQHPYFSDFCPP
Note: in the data inactive means no Kd found up to 30 µM.

Sequence of Casein kinase II subunit alpha' (P19784 whole entry): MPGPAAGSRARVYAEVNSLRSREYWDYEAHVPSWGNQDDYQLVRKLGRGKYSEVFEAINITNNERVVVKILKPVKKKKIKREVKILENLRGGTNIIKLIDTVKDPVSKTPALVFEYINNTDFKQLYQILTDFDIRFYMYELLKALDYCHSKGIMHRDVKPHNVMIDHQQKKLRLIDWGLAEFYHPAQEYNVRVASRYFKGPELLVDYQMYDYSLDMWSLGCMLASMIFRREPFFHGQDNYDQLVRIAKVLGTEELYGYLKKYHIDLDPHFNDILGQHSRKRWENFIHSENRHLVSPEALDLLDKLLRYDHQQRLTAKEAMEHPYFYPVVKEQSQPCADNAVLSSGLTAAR

Row | SMILES | Kd (Glycine--tRNA ligase) | Kd [2] | Kd [1] | Kd [3] | Kd (Wee1-like protein kinase) | Kd [4]
1 | CCN(CCCOc1ccc2c(Nc3cc(CC(=O)Nc4cccc(F)c4)n[nH]3)ncnc2c1)CCOP(=O)(O)O [BARASERTIB] | > 30 µM (inactive) | > 30 µM (inactive) | 1.95 µM | > 30 µM (inactive) | > 30 µM (inactive) | 
2 | N#CCNC(=O)c1ccc(-c2ccnc(Nc3ccc(N4CCOCC4)cc3)n2)cc1 [MOMELOTINIB] | > 30 µM (inactive) | > 30 µM (inactive) | 0.302 µM (active) | > 30 µM (inactive) |  | > 30 µM (inactive)
3 | C=CCn1c(=O)c2cnc(Nc3ccc(N4CCN(C)CC4)cc3)nc2n1-c1cccc(C(C)(C)O)n1 [ADAVOSERTIB] | > 30 µM (inactive) | > 30 µM (inactive) | 0.412 µM (active) | > 30 µM (inactive) |  | 
4 | C[C@]1(O)C[C@@H](c2nc(-c3ccc4ccc(-c5ccccc5)nc4c3)c3c(N)nccn32)C1 [LINSITINIB] | > 30 µM (inactive) | > 30 µM (inactive) | > 30 µM (inactive) | > 30 µM (inactive) | > 30 µM (inactive) | 
5 | O=S(=O)(c1cccc2cnccc12)N1CCCNCC1 [FASUDIL] | > 30 µM (inactive) | > 30 µM (inactive) | > 30 µM (inactive) | > 30 µM (inactive) | > 30 µM (inactive) | 
6 | CN(c1ncccc1CNc1nc(Nc2ccc3c(c2)CC(=O)N3)ncc1C(F)(F)F)S(C)(=O)=O [PF-00562271] | > 30 µM (inactive) | > 30 µM (inactive) | 0.998 µM (active) | > 30 µM (inactive) | > 30 µM (inactive) | 
7 | C[C@@]1(C(=O)Nc2ccc(F)nc2)CCCN1c1nc(Nc2cc(C3CC3)n[nH]2)c2cccn2n1 [BMS-754807] | > 30 µM (inactive) | > 30 µM (inactive) |  |  |  | 
8 | CN(C)C/C=C/C(=O)Nc1cc2c(Nc3ccc(F)c(Cl)c3)ncnc2cc1O[C@H]1CCOC1 [AFATINIB] | > 30 µM (inactive) |  |  |  |  | 

Further lines, with some results ahead:

Row | Kd (Glycine--tRNA ligase) | Kd [2] | SMILES | Kd [1] | Kd [3] | Kd (Wee1-like protein kinase) | Kd [4]
9 | > 30 µM (inactive) | > 30 µM (inactive) | COc1cc2c(Oc3ccc4[nH]c(C)cc4c3F)ncnc2cc1OCCCN1CCCC1 [CEDIRANIB] |  |  |  | 
10 | > 30 µM (inactive) |  | COc1cc2c(N3CCN(C(=O)Nc4ccc(OC(C)C)cc4)CC3)ncnc2cc1OCCCN1CCCCC1 [TANDUTINIB] |  |  |  | 
11 | > 30 µM (inactive) | > 30 µM (inactive) | CC1(C)CNc2cc(NC(=O)c3cccnc3NCc3ccncc3)ccc21 [MOTESANIB] |  |  |  | 
12 | > 30 µM (inactive) | > 30 µM (inactive) | Cn1cnc2c(F)c(Nc3ccc(Br)cc3Cl)c(C(=O)NOCCO)cc21 [SELUMETINIB] |  |  |  | 
13 | > 30 µM (inactive) | > 30 µM (inactive) | CC(C)(O)CC(=O)NCCn1ccc2ncnc(Nc3ccc(Oc4cccc(C(F)(F)F)c4)c(Cl)c3)c21 [TAK-285] | > 30 µM (inactive) | > 30 µM (inactive) | > 30 µM (inactive) | > 30 µM (inactive)
14 | > 30 µM (inactive) | > 30 µM (inactive) | Cn1c(=O)n(-c2ccc(C(C)(C)C#N)cc2)c2c3cc(-c4cnc5ccccc5c4)ccc3ncc21 [DACTOLISIB] | > 30 µM (inactive) | > 30 µM (inactive) | > 30 µM (inactive) | 
